Results reported in ChEMBL document CHEMBL5137132, “Ulleungdolin, a Polyketide-Peptide Hybrid Bearing a 2,4-Di-O-methyl-β-d-antiarose from Streptomyces sp. 13F051 Co-cultured with Leohumicola minima 15S071” (2022).

Columns and labels:
MDA-MB-231 [1] = assay: Anti-migration activity against human MDA-MB-231 cells assessed as inhibition of cell migration at 10 uM incubated for 18 hrs by wound healing assay; assay type: functional
MDA-MB-231 [2] = assay: Anti-migration activity against human MDA-MB-231 cells assessed as inhibition of cell migration at 25 uM incubated for 18 hrs by wound healing assay; assay type: functional

CO[C@@H]1[C@@H](O)[C@@H](OC)[C@H](Oc2cccc3c2C(=O)N([C@@]2(C(=O)N[C@H](C(=O)N[C@H](C(=O)O)c4ccc(O)cc4)[C@H](O)CC(N)=O)C[C@@H]2C)[C@H]3CCCCCCCC(=O)O)O[C@@H]1C
inhibition at 10 µM (MDA-MB-231 [1]): 42% | inhibition at 25 µM (MDA-MB-231 [2]): 100%
